# Source: US20260167622A1, “PAN-KRAS DEGRADING AGENT, AND PREPARATION METHOD THEREFOR AND USE THEREOF” (LEADINGTAC PHARMACEUTICAL (SHAOXING) CO., LTD., priority 2022, published 2026)
# Key:
# Human KRAS G12V = target: T1, Human KRAS G12V (Homo sapiens, UniProt P01116, G12V); experiment: KRAS-G12V/GTP binding assay (HTRF kit); conditions: 25° C., 1 h
# T1 construct: purchased PerkinElmer
# Experimental: Test Example 2: KRAS G12V Binding Assay
# In this method, the inhibitory effects of the compounds on the binding of KRAS G12V to GTP were assayed by a homogeneous time-resolved fluorescence (HTRF) technique using a KRAS-G12V/GTP binding assay kit (PerkinElmer).
# The experimental procedures were as follows (refer to the kit instructions for detailed test methods): the compounds of the present disclosure were each firstly dissolved in DMSO at a concentration of 20 mM, and then diluted in an equal gradient with a buffer in the kit, so that the final concentrations of the test compounds in the reaction system were in a range of 0.02-5000 nM, and the final concentration of DMSO was 0.5%. 5 μL of each compound was incubated with 5 μL of 1× Human KRAS G12V 6His-tagged (PerkinElmer), 5 µL of 1×6His Eu Cryptate Antibody (PerkinElmer), and 5 μL of 1×GTP Red reagent (PerkinElmer) in a 384-well plate (Greiner) at 25° C. for 1 h. After the incubation was completed, the fluorescence intensity of each well was measured at the excitation wavelength of 337 nm and the emission wavelengths of 620 nm and 665 nm with an EnVision microplate reader (PerkinElmer) in the HTRF mode, and Ratio values were calculated using the formula: Ratio=(665 nm/620 nm)×10^4. The inhibition rates of the compounds at each concentration were calculated by comparing the fluorescence intensity ratio with that of the control group. Then non-linear curve fittings for logarithmic concentration-inhibition rate were performed using the GraphPad Prism 8 analysis software, and the IC50 values of the compounds were obtained (Table 3).
# [1] = target: T2, KRAS G12V protein in SW900 cells (Homo sapiens, UniProt P01116, G12V); experiment: KRAS degradation assay (Western Blot) in SW900 cells; assay type: cell-based; conditions: 24 h
# T2 construct: endogenous in cells; host or cells: SW900
# In short: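 Western blot read-out: KRAS band gray value divided by β-actin, compared with DMSO control to give degradation rate. DC50 and Dmax came from log concentration–response fits after 24 h compound exposure (0.03–3000 nM final, 0.25% DMSO) at 37 °C, 5% CO2.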
# [2] = test system: KRAS G12D mutant human metastatic pancreatic cancer cell AsPc-1; experiment: 3D cell proliferation inhibition assay, AsPc-1; assay type: cell-based; conditions: ASPC1, 168 h, 3D culture, 7 days, CTG
# In short: (§1)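 Seven-day 3D growth at 37 °C in low-adsorption wells, 5×10^2 cells/well except MKN1 (1×10^3), final compound range 10000–0.026 nM in 0.2% DMSO. CTG luminescence read-out; percent inhibition set against DMSO and medium-only wells, IC50 by curve fitting.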
# [3] = test system: KRAS G12V mutant human lung squamous carcinoma cell SW900; experiment: 3D cell proliferation inhibition assay, SW900; assay type: cell-based; conditions: SW900, 168 h, 3D culture, 7 days, CTG
# [4] = test system: KRAS WT human gastric cancer cell MKN1; experiment: 3D cell proliferation inhibition assay, MKN1; assay type: cell-based; conditions: MKN-1, 168 h, 3D culture, 7 days, CTG
# In short: as §1
# [5] = test system: KRAS G12V mutant human colorectal cancer cell SW620; experiment: 3D cell proliferation inhibition assay, SW620; assay type: cell-based; conditions: SW-620, 168 h, 3D culture, 7 days, CTG
# In short: as §1
# KRAS-G12D mutant cells = conditions: background, J. Med. Chem. 2022, 65, 3923-3942; cited from earlier work
# T1 sequence (P01116 1-188 isoform P01116-2 G12V): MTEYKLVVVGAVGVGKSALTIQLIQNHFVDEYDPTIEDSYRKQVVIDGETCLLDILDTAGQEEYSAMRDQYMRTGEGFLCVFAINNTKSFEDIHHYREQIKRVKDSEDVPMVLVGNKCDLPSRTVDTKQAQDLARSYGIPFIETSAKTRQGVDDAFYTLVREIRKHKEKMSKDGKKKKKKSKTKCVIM
# T2 sequence (P01116 1-188 isoform P01116-2 G12V): as above
SMILES,IC50 (Human KRAS G12V),DC50 [1],Dmax [1],further results
"C#Cc1cccc2cc(O)cc(-c3ncc4c(N5CCC[C@@](C)(O)C5)nc(OCC5(CN6CCN(CC7CCC8(CC7)CCN(C(=O)c7ccc(OC)c(N9CCC(=O)NC9=O)c7)CC8)CC6)CC5)nc4c3F)c12 [Example 29, (R)-1-(5-(9-((4-((1-(((7-(8-ethynyl-3-hydroxynaphthalen-1-yl)-8-fluoro-4-(3-hydroxy-3-methylpiperidin-1-yl)pyrido[4,3-d]pyrimidin-2-yl)oxy)methyl)cyclopropyl)methyl)piperazin-1-yl)methyl)-3-azaspiro[5.5]undecane-3-carbonyl)-2-methoxyphenyl)dihydropyrimidine-2,4(1H,3H)-dione]",≤ 500 nM,≤ 50 nM,80 to 100%,IC50 [2]: ≤ 50 nM; IC50 [3]: ≤ 50 nM; IC50 [4]: ≤ 50 nM; IC50 [5]: 4.46 nM
"C#Cc1c(F)ccc2cc(O)cc(-c3ncc4c(N(C)C5CC5)nc(OCC5(CN6CCN(CC7CCC8(CC7)CCN(C(=O)c7ccc(OC)c(N9CCC(=O)NC9=O)c7)CC8)CC6)CC5)nc4c3F)c12 [Example 30, 1-(5-(9-((4-((1-(((4-(cyclopropyl(methyl)amino)-7-(8-ethynyl-7-fluoro-3-hydroxynaphthalen-1-yl)-8-fluoropyrido[4,3-d]pyrimidin-2-yl)oxy)methyl)cyclopropyl)methyl)piperazin-1-yl)methyl)-3-azaspiroundecane-3-carbonyl)-2-methoxyphenyl)dihydropyrimidine-2,4(1H,3H)-dione]",500 to 1000 nM,≤ 50 nM,50 to 80%,
"Cc1ccc(C(=O)N2CCC3(CCC(CN4CCN(CC5(COc6nc(N7CCC[C@@](C)(O)C7)c7cnc(-c8cc(O)cc(Cl)c8C8CC8)c(F)c7n6)CC5)CC4)CC3)CC2)cc1N1CCC(=O)NC1=O [Example 40, (R)-1-(5-(9-((4-((1-(((7-(3-chloro-2-cyclopropyl-5-hydroxyphenyl)-8-fluoro-4-(3-hydroxy-3-methylpiperidin-1-yl)pyrido[4,3-d]pyrimidin-2-yl)oxy)methyl)cyclopropyl)methyl)piperazin-1-yl)methyl)-3-azaspiro[5.5]undecane-3-carbonyl)-2-methylphenyl)dihydropyrimidine-2,4(1H,3H)-dione]",500 to 1000 nM,≤ 50 nM,80 to 100%,
C#Cc1c(F)ccc2cc(O)cc(-c3ncc4c(N5CC6CCC(C5)N6)nc(OC[C@@]56CCCN5C[C@H](F)C6)nc4c3F)c12 [MRTX1133],,,,specificity for KRAS-G12D mutant cells over wild-type tumor cells (KRAS-G12D mutant cells): more than 1000 times

# Further lines, with some results ahead:
IC50 (Human KRAS G12V),DC50 [1],Dmax [1],SMILES,further results
≤ 500 nM,≤ 50 nM,50 to 80%,"C#Cc1c(F)ccc2cc(O)cc(-c3ncc4c(N5CCC[C@@](C)(O)C5)nc(OCC56CC(CN7CCN(CC8CCC9(CC8)CCN(C(=O)c8ccc(C)c(N%10CCC(=O)NC%10=O)c8)CC9)CC7)(C5)C6)nc4c3F)c12 [Example 14, (R)-1-(5-(9-((4-((3-(((7-(8-ethynyl-7-fluoro-3-hydroxynaphthalen-1-yl)-8-fluoro-4-(3-hydroxy-3-methylpiperidin-1-yl)pyrido[4,3-d]pyrimidin-2-yl)oxy)methyl)bicyclo[1.1.1]pent-1-yl)methyl)piperazin-1-yl)methyl)-3-azaspiro[5.5]undecane-3-carbonyl)-2-methylphenyl)dihydropyrimidine-2,4(1H,3H)-dione]",
≤ 500 nM,,,"C#Cc1c(F)ccc2cc(O)cc(-c3ncc4c(N5CCC[C@@](C)(O)C5)nc(OCC5(CN6CCN(C(=O)c7ccc(Cl)c(N8CCC(=O)NC8=O)c7)CC6)CC5)nc4c3F)c12 [Example 15, (R)-1-(2-chloro-5-(4-((1-(((7-(8-ethynyl-7-fluoro-3-hydroxynaphthalen-1-yl)-8-fluoro-4-(3-hydroxy-3-methylpiperidin-1-yl)pyrido[4,3-d]pyrimidin-2-yl)oxy)methyl)cyclopropyl)methyl)piperazine-1-carbonyl)phenyl)dihydropyrimidine-2,4(1H,3H)-dione]",
≤ 500 nM,,,"C#Cc1c(F)ccc2cc(O)cc(-c3ncc4c(N5CCC[C@@](C)(O)C5)nc(OCC5(CN6CCC7(CC6)CCN(C(=O)c6ccc(Cl)c(N8CCC(=O)NC8=O)c6)CC7)CC5)nc4c3F)c12 [Example 16, (R)-1-(2-chloro-5-(9-((1-(((7-(8-ethynyl-7-fluoro-3-hydroxynaphthalen-1-yl)-8-fluoro-4-(3-hydroxy-3-methylpiperidin-1-yl)pyrido[4,3-d]pyrimidin-2-yl)oxy)methyl)cyclopropyl)methyl)-3,9-diazaspiro[5.5]undecane-3-carbonyl)phenyl)dihydropyrimidine-2,4(1H,3H)-dione]",
